Data reported in patent publication US20200155650A1, “Combination treatment of NAFLD and NASH” (CymaBay Therapeutics, Inc., priority 2018, published 2020).

Assays:
[1] = tested on: subjects with liver biopsy-proven NASH; experiment: Example 3, clinical, single agent seladelpar in biopsy-proven NASH; type: in vivo, human; conditions: 10, 20, and 50 mg/day for 52 weeks
Procedure: One hundred seventy-five subjects with liver biopsy-proven NASH are treated with doses of 10, 20, and 50 mg/day, or placebo (2:2:2:1 randomization) for 52 weeks. Subjects are permitted their usual other medications (e.g. antidiabetic medications such as metformin or […]) but not glitazones, PPAR agonists, OCA, or similar medications. […] The primary efficacy outcome is the change in baseline in liver fat content at 12 weeks, as measured by magnetic resonance imaging-derived proton density fat fraction (MRI-PDFF). Other outcome measures include histological improvement in NASH and fibrosis, assessed by comparing liver biopsy samples at baseline and at 52 weeks after the start of dosing; MRI-PDFF at 26 and 52 weeks; and measurements of total cholesterol, HDL-C, LDL-C, VLDL-C, TGs, apoB, and liver transaminases. The subjects also maintain health diaries, which are reviewed at each visit.

[2] = tested on: Alms1 mutant (fozlfoz) mice; conditions: 10 mg/Kg by gavage for 8 weeks, cited from earlier work
PPARα = target: T1, PPARα (Homo sapiens, UniProt Q07869); conditions: cited from earlier work
T1 sequence (Q07869 1-468): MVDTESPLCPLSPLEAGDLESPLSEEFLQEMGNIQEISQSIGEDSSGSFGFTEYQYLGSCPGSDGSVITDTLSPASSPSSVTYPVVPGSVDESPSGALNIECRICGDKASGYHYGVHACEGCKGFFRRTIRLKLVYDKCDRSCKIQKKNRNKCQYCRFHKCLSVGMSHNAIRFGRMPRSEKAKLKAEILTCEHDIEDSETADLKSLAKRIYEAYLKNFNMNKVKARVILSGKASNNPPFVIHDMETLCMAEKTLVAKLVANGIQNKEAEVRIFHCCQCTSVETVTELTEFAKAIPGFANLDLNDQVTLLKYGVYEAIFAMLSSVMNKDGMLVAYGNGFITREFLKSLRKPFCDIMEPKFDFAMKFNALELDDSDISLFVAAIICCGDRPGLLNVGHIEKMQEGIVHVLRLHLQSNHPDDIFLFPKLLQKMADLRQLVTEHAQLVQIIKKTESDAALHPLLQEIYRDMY

| SMILES | improvement in disease (MRI-PDFF, liver biopsy, NAS score) [1] | mean nonalcoholic fatty liver disease activity score (NAS) ([2]; vehicle 6.9) | reduction of serum alanine aminotransferase ([2]; vehicle 300-600 U/L) [%] | hyperglycemia, hyperinsulinemia, and glucose disposal [2] | EC50 (PPARα) [nM] |
| --- | --- | --- | --- | --- | --- |
| CCO[C@H](COc1ccc(C(F)(F)F)cc1)CSc1ccc(OCC(=O)O)c(C)c1 [Seladelpar, (R)-2-(4-((2-ethoxy-3-(4-(trifluoromethyl)phenoxy)propyl)-sulfanyl)-2-methylphenoxy)acetic acid] | dose-related improvement in their disease | 3.13 | 50 | normalized |  |
| CSc1ccc(C(=O)/C=C/c2cc(C)c(OC(C)(C)C(=O)O)c(C)c2)cc1 [elafibranor] |  |  |  |  | 6 |
